Reference: PMC7539012, “Hyperphosphorylated tau aggregation and cytotoxicity modulators screen identified prescription drugs linked to Alzheimer's disease and cognitive functions” (Scientific Reports, 2020)
Counter-ions that a name gives are not always drawn.
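Note: 30 µM compound with 6 µM p-tau over 16 h.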

These compounds were tested on T1, 1N4R p-tau (assay: p-tau aggregation modulator screen of 1280-compound library (ThS fluorescence net change over 16 h)). Conditions: not given.
T1 construct: made in house; host or cells: E. coli (PIMAX system)
Assay type: biochemical
For `C[C@@H]1O[C@@H](O[C@@H]2C=C3CC[C@@H]4[C@H](CC[C@]5(C)[C@@H](c6ccc(=O)oc6)CC[C@]45O)[C@@]3(C)CC2)[C@H](O)[C@H](O)[C@H]1O` [Proscillaridin A], the ThS net change was 498. In the case of `NC[C@@H]1O[C@H](O[C@H]2[C@@H](O)[C@H](O[C@@H]3[C@@H](O)[C@H](N)C[C@H](N)[C@H]3O[C@H]3O[C@H](CO)[C@@H](O)[C@H](O)[C@H]3N)O[C@@H]2CO)[C@H](N)[C@@H](O)[C@@H]1O` [Paromomycin sulfate], the ThS net change is reported as 472. For `C=CC[C@]1(O)CC[C@H]2[C@@H]3CCC4=CC(=O)CCC4=C3C=C[C@@]21C` [Altrenogest], the ThS net change was 432. `Cc1nc2n(c(=O)c1CCN1CCC(c3noc4cc(F)ccc34)CC1)CCCC2` [Risperidone] gave a ThS net change of 447. `COc1ccc([C@@H]2CC(=O)c3c(O)cc(O[C@@H]4O[C@H](CO[C@@H]5O[C@@H](C)[C@H](O)[C@@H](O)[C@H]5O)[C@@H](O)[C@H](O)[C@H]4O)cc3O2)cc1O` [Hesperidin] showed a ThS net change of 425.

Same assay, conditions: 1280-compound library screen; ThS fluorescence net change over 16 h
In the case of `Nc1ncnc2c1ncn2[C@@H]1O[C@H](CO)[C@@H](O)[C@@H]1O` [Vidarabine], the ThS net change is reported as 401. Compound `CCN(CCO)CCCC(C)Nc1ccnc2cc(Cl)ccc12` (stereo not drawn) [Hydroxychloroquine sulfate] has a ThS net change of 380. With `Nc1ccc(S(=O)(=O)Nc2nccs2)cc1` [Sulfathiazole] the ThS net change was 389. Work on `CCCCNc1ccc(C(=O)OCCOCCOCCOCCOCCOCCOCCOCCOCCOC)cc1` [Benzonatate] yielded a ThS net change of 398. `CC(C)(C)NC[C@H](O)COc1cccc2c1CCCC2=O.Cl` [(-) -Levobunolol hydrochloride] was tested, and the ThS net change was 397. In the case of `CCCC(=O)Nc1ccc(OCC(O)CNC(C)C)c(C(C)=O)c1` (stereo not drawn) [Acebutolol hydrochloride], the ThS net change is reported as 381. `O=C1NCCN1c1ncc([N+](=O)[O-])s1` [Niridazole] gave a ThS net change of 399. For `COC(=O)Nc1nc2ccc(C(=O)c3cccs3)cc2[nH]1` [Nocodazole], the ThS net change was 409. `CC(C(=O)O)c1ccc(C(=O)c2ccccc2)s1` (stereo not drawn) [Tiaprofenic acid] was tested, and the ThS net change was 381. Compound `CN1CCCC(CC2c3ccccc3Sc3ccccc32)C1` (stereo not drawn) [Metixene hydrochloride] has a ThS net change of 386. `C#Cc1cccc(Nc2ncnc3cc(OCCOC)c(OCCOC)cc23)c1` [Erlotinib] was tested, and the ThS net change was 387. In the case of `O=C(O)COC(=O)Cc1ccccc1Nc1c(Cl)cccc1Cl` [Aceclofenac], the ThS net change is reported as 390. With `CC(C)[C@H](N)C(=O)OCCOCn1cnc2c(=O)[nH]c(N)nc21` [Valacyclovir hydrochloride] the ThS net change was 396. In the case of `COc1cc(C)nc(-n2nc(C)cc2OC)n1` [Epirizole], the ThS net change is reported as 389. Compound `CC(=O)[C@H]1CC[C@H]2[C@@H]3C[C@H](C)C4=CC(=O)CC[C@]4(C)[C@H]3[C@@H](O)C[C@]12C` [Medrysone] has a ThS net change of 388.

Same assay, conditions: 1280-compound library screen; […]
`C=C(C)[C@@H]1[C@H]2OC(=O)[C@@H]1[C@]1(O)C[C@H]3O[C@]34C(=O)O[C@H]2[C@]14C` [Picrotoxinin] showed a ThS net change of 390.

Same assay, conditions: library screen, ThS fluorescence net change over 16 h with p-tau
In the case of `Cc1cc(N)c2ccccc2[n+]1CCCCCCCCCC[n+]1c(C)cc(N)c2ccccc21` [Dequalinium dichloride], the ThS net change is reported as 297. In the case of `CCOC(=O)c1ccc(OC(=O)CCCCCNC(=N)N)cc1.CS(=O)(=O)O` [Gabexate mesilate], the ThS net change is reported as 305. In the case of `CC1=C(CC(=O)O)c2cc(F)ccc2/C1=C\c1ccc([S+](C)[O-])cc1` (stereo not drawn) [Sulindac], the ThS net change is reported as 288. `Clc1ccc(C(Cn2ccnc2)OCc2ccsc2Cl)c(Cl)c1` (stereo not drawn) [Tioconazole] was tested, and the ThS net change was 309. Compound `Nc1nc(N)nc(-c2cc(Cl)ccc2Cl)n1` [Irsogladine maleate] has a ThS net change of 308. `Cc1ccc(C(=O)c2cc(O)c(O)c([N+](=O)[O-])c2)cc1` [Tolcapone] was tested, and the ThS net change was 214. `CN(C)[C@@H]1C(O)=C(C(N)=O)C(=O)[C@@]2(O)C(O)=C3C(=O)c4c(O)cccc4[C@@](C)(O)[C@H]3[C@H](O)[C@@H]12` [Oxytetracycline dihydrate] was tested, and the ThS net change was 220. Work on `CCCCCC[C@H]1C(=O)O[C@H](C)[C@H](NC(=O)c2cccc(NC=O)c2O)C(=O)O[C@@H](C)[C@@H]1OC(=O)CC(C)C` [Antimycin A] yielded a ThS net change of 211. Work on `O=c1cc(-c2ccc(O)c(O)c2)oc2cc(O)cc(O)c12` [Luteolin] yielded a ThS net change of 296.

Same assay, conditions: p-tau aggregation modulator screen of 1280-compound library; ThS fluorescence net change
For `NC[C@H]1O[C@H](O[C@H]2[C@H](O)[C@@H](O[C@H]3O[C@H](CO)[C@@H](O)[C@H](N)[C@H]3O)[C@H](N)C[C@@H]2N)[C@H](N)C[C@@H]1O` [Tobramycin], the ThS net change was 360. `C[N+]1(CCCCC[N+]2(C)CCCC2)CCCC1.O=C([O-])C(O)C(O)C(=O)O.O=C([O-])C(O)C(O)C(=O)O` [Pentolinium bitartrate] showed a ThS net change of 369. For `CC(=O)[C@H]1CC[C@H]2[C@@H]3C=CC4=CC(=O)CC[C@@]4(C)[C@@H]3CC[C@]12C` [Dydrogesterone], the ThS net change was 371. `NS(=O)(=O)Cc1noc2ccccc12` [Zonisamide] showed a ThS net change of 341. `OCCN1CCN(CCCN2c3ccccc3C=Cc3ccccc32)CC1` [Opipramol dihydrochloride] gave a ThS net change of 343. `CCN[C@H]1CN(CCCOC)S(=O)(=O)c2sc(S(N)(=O)=O)cc21` [Brinzolamide] was tested, and the ThS net change was 348. `Cc1cc2c(cc1S(N)(=O)=O)S(=O)(=O)CCC2` [Meticrane] was tested, and the ThS net change was 368. `CC(CN(C)C)C(C)(O)Cc1ccc(Cl)cc1.Cl` (stereo not drawn) [Clobutinol hydrochloride] was tested, and the ThS net change was 336. `CCN(CC)CCNC(=O)c1cc(S(C)(=O)=O)ccc1OC` [Tiapride hydrochloride] was tested, and the ThS net change was 349. With `CCCCCCCN(CC)CCCC(O)c1ccc(NS(C)(=O)=O)cc1.CCCCCCCN(CC)CCCC(O)c1ccc(NS(C)(=O)=O)cc1.O=C(O)/C=C/C(=O)O` (stereo not drawn) [Ibutilide fumarate] the ThS net change was 330. In the case of `N=C(N)NCC1COC2(CCCCC2)O1.N=C(N)NCC1COC2(CCCCC2)O1.O=S(=O)(O)O` (stereo not drawn) [Guanadrel sulfate], the ThS net change is reported as 373. `COC(=O)Nc1nc2cc(SC(C)C)ccc2[nH]1` [Methiazole] gave a ThS net change of 365. `CC(C(=O)O)c1ccc(N2Cc3ccccc3C2=O)cc1` (stereo not drawn) [Indoprofen] gave a ThS net change of 364. For `CNC[C@H](O)[C@@H](O)[C@H](O)[C@H](O)CO` [Meglumine], the ThS net change was 368. `CCN1CCCC1CNC(=O)c1cc(S(N)(=O)=O)ccc1OC` (stereo not drawn) [Sulpiride] was tested, and the ThS net change was 373. `Clc1ccc(Nc2nnc(Cc3ccncc3)c3ccccc23)cc1` [Vatalanib] gave a ThS net change of 356. For `CN1C[C@H](CNC(=O)OCc2ccccc2)C[C@@H]2c3cccc4c3c(cn4C)C[C@H]21` [Metergoline], the ThS net change was 349. In the case of `CC(C)N(CCC(C(N)=O)(c1ccccc1)c1ccccn1)C(C)C` (stereo not drawn) [Disopyramide], the ThS net change is reported as 377. With `CC(=O)c1ccc(S(=O)(=O)NC(=O)NC2CCCCC2)cc1` [Acetohexamide] the ThS net change was 360. `CC[P](CC)(CC)=[Au][S][C@@H]1O[C@H](COC(C)=O)[C@@H](OC(C)=O)[C@H](OC(C)=O)[C@H]1OC(C)=O` [Auranofin] was tested, and the ThS net change was 365. `NCc1ccccc1CC(=O)N[C@@H]1C(=O)N2C(C(=O)O)=C(CSc3nnnn3CC(=O)O)CS[C@H]12` [Ceforanide] gave a ThS net change of 351. `Nc1nc2c(ncn2COCCO)c(=O)[nH]1` [Acyclovir] gave a ThS net change of 367. In the case of `CN1CCN(CCCN2c3ccccc3Sc3ccc(Cl)cc32)CC1` [Prochlorperazine dimaleate], the ThS net change is reported as 357. With `Cc1cc(C(C)(C)C)c(O)c(C)c1CC1=NCCN1` [Oxymetazoline hydrochloride] the ThS net change was 339. `CN1C(=O)OC(C)(C)C1=O` [Trimethadione] gave a ThS net change of 346.

Same assay, conditions: p-tau aggregation modulator screen of 1280-compound library; […]
With `COc1cccc([C@@]2(O)CCCC[C@@H]2CN(C)C)c1.Cl` [Tramadol hydrochloride] the ThS net change was 373. Work on `C[N+]1(C)CCCC(OC(=O)C(O)(c2ccccc2)c2ccccc2)C1` (stereo not drawn) [Mepenzolate bromide] yielded a ThS net change of 366. Work on `Cc1cc(=O)n(-c2ccccc2)n1C` [Antipyrine] yielded a ThS net change of 359.

Same assay, conditions: p-tau aggregation modulator screen of the compound library, ThS fluorescence net change
With `Cl.NCC(O)c1ccc(O)cc1` (racemic) [(+,-)-Octopamine hydrochloride] the ThS net change was 413. `CN1C(C(=O)Nc2ccccn2)=C(O)c2sccc2S1(=O)=O` [Tenoxicam] gave a ThS net change of 416. `NC1CCN(c2c(F)cc3c(=O)c(C(=O)O)cn(C4CC4)c3c2Cl)C1` (stereo not drawn) [Clinafloxacin] was tested, and the ThS net change was 433. With `COc1ccc(-c2ccc3cc(C(=O)O)ccc3c2)cc1C12CC3CC(CC(C3)C1)C2` [Adapalene] the ThS net change was 477. `CCOc1cc(CC(=O)N[C@@H](CC(C)C)c2ccccc2N2CCCCC2)ccc1C(=O)O` [Repaglinide] was tested, and the ThS net change was 481. `O=S(=O)(O)CCS` [Mesna] showed a ThS net change of 424. `CCC1=C(C)CN(C(=O)NCCc2ccc(S(=O)(=O)NC(=O)N[C@H]3CC[C@H](C)CC3)cc2)C1=O` [Glimepiride] showed a ThS net change of 415. With `O=C1OCCN1/N=C/c1ccc([N+](=O)[O-])o1` [Furazolidone] the ThS net change was 415. `NS(=O)(=O)c1cc(C(=O)O)cc(N2CCCC2)c1Oc1ccccc1` [Piretanide] showed a ThS net change of 435. Work on `NC(=O)c1ncn([C@@H]2O[C@H](CO)[C@@H](O)[C@H]2O)n1` [Ribavirin] yielded a ThS net change of 458. Work on `CC(=O)OCC1=C(C(=O)O)N2C(=O)[C@@H](NC(=O)Cc3cccs3)[C@H]2SC1` [Cephalothin sodium salt] yielded a ThS net change of 446. Compound `CCOC(=O)/C=C(C)/C=C/C=C(C)/C=C/c1c(C)cc(OC)c(C)c1C` [Etretinate] has a ThS net change of 420. For `CNC(C)CCC=C(C)C.CNC(C)CCC=C(C)C.O=C(O)C(O)C(O)C(O)C(O)C(=O)O` (stereo not drawn) [Isometheptene mucate], the ThS net change was 481. With `COc1ccc2c(c1)C(=O)N(CCc1ccc(S(=O)(=O)NC(=O)NC3CCCCC3)cc1)C(=O)C2(C)C` [Gliquidone] the ThS net change was 492. Work on Josamycin yielded a ThS net change of 446. For `O=C(CCCCC(=O)Nc1c(I)cc(I)c(C(=O)O)c1I)Nc1c(I)cc(I)c(C(=O)O)c1I` [Iodipamide], the ThS net change was 421. With `CCOc1ccc2c(c1)C(C)=CC(C)(C)N2` [Ethoxyquin] the ThS net change was 460.
